Data taken from patent US20020002171A1, “Materials and methods for killing nematodes and nematode eggs” (priority 2000, published 2002).

System: Caenorhabditis elegans
Assay: C. elegans L1 nematicidal dose response in 96-well plates, 5 day visual score (Example 2; same procedure for Example 7, Table 3)
Type: in vivo
Design: key to 5 Day Visual Score V1 / 5 Day Visual Score V2 / 5 Day Visual Score V3 / 5 Day Visual Score V4 / 5 Day Visual Score V6 / 5 Day Visual Score V5 / Initial HTS Run Visual Score / Follow-up HTS Run Visual Score: Dead: only stiff L1s (no movement); Dead (L4): worms are dead, but at a later larval stage; majority of worms are L1 (based on size) worms move when plate is tapped; majority of worms are L2 (based on size); majority of worms are L3 (based on size); majority of worms are L4 (based on size); AD: majority of worms are adult; #AD: 5 adult worms or less; B!: sterile (0-25 progeny); B: low broodsize (25-100 progeny); ˜B: moderate broodsize (100-250 progeny); <: reduced broodsize (250-500 progeny); OK: no effect (˜1000+ progeny)
How it was run: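 Scoring was by eye at 100× on day 5, after incubation at 20° C, of 20 C. elegans L1s per well fed 1% E. coli HB101 in NGM. Compound columns V1–V6 spanned 70 μM to 0.3 μM in 3-fold steps, with 1.4% DMSO in the top well and as control.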

[1] = dose response, dilution V1, day 5
[2] = dose response, dilution V2, day 5
[3] = dose response, dilution V3, day 5
[4] = dose response, dilution V4, day 5
[5] = dose response, dilution V5, day 5
[6] = dose response, dilution V6, day 5
[7] = dose response, dilution V4, 5 day
[8] = dose response, dilution V5, 5 day
[9] = dose response, dilution V6, 5 day
[10] = dose response, dilution V1, 5 day
[11] = dose response, dilution V2, 5 day
[12] = dose response, dilution V3, 5 day

| Structure (SMILES) | Follow-up HTS Run % Run [%] | Follow-up HTS Run Visual Score | Follow-up HTS Run mOD [mOD] | Initial HTS Run % Run [%] | Initial HTS Run Visual Score | Initial HTS Run mOD [mOD] | 5 Day Visual Score V1 [1] | 5 Day Visual Score V2 [2] | 5 Day Visual Score V3 [3] | 5 Day Visual Score V4 [4] | 5 Day Visual Score V5 [5] | 5 Day Visual Score V6 [6] | 5 Day Visual Score V4 [7] | 5 Day Visual Score V5 [8] | 5 Day Visual Score V6 [9] | other results |
| --- | --- | --- | --- | --- | --- | --- | --- | --- | --- | --- | --- | --- | --- | --- | --- | --- |
| CC1(C)CC(O)CC(C)(CNc2nsc(N3CCN(c4ccc(F)cc4)CC3)n2)C1 (centres unmarked) [compound 244] | 104 | Dead | 167 | 125 | Dead | 138 | Dead | Dead | < (reduced broodsize (250-500 progeny)) | OK (no effect (˜1000+ progeny)) | OK (no effect (˜1000+ progeny)) | OK (no effect (˜1000+ progeny)) |  |  |  |  |
| C=CCN(CC=C)c1nc(NCc2ccccc2C(F)(F)F)ns1 [compound 321] | 116 |  | 186 | 95 | Dead/2L2 | 105 |  |  |  |  |  |  | OK (no effect (˜1000+ progeny)) | OK (no effect (˜1000+ progeny)) | OK (no effect (˜1000+ progeny)) |  |
| C=CCN(CC=C)c1nc(N2CCN(c3c(C)cccc3C)CC2)ns1 [compound 232] | 68 | Dead/1AD/B | 109 | 120 | 2AD/B | 132 | Dead |  | OK (no effect (˜1000+ progeny)) | OK (no effect (˜1000+ progeny)) | OK (no effect (˜1000+ progeny)) | OK (no effect (˜1000+ progeny)) |  |  |  |  |
| CCCCCCCCCCNc1nsc(N(C)CCc2ccccc2)n1 [compound 283] | 120 | Dead | 193 | 131 | Dead | 144 | Dead | Dead |  | OK (no effect (˜1000+ progeny)) | OK (no effect (˜1000+ progeny)) | OK (no effect (˜1000+ progeny)) |  |  |  |  |
| CC1CCN(c2nc(NCc3ccccc3)ns2)CC1 [compound 261] | 96 |  | 155 | 96 | L3/L4/AD/B! | 106 | Dead |  | OK (no effect (˜1000+ progeny)) | OK (no effect (˜1000+ progeny)) | OK (no effect (˜1000+ progeny)) | OK (no effect (˜1000+ progeny)) |  |  |  |  |
| O=C(NCCc1ccccc1F)C1C(c2ccccc2Cl)=NOC1c1ccc(-c2ccccc2)cc1 (centres unmarked) [AKC 110] |  |  |  |  |  |  |  |  |  |  |  |  |  |  |  | 5 Day Visual Score V6 (0.3 μM, C. elegans L1, scored day 5): L1; 5 Day Visual Score V5 (0.9 μM, C. elegans L1, scored day 5): L1; 5 Day Visual Score V4 (2.6 μM, C. elegans L1, scored day 5): L1; 5 Day Visual Score V3 (7.8 μM, C. elegans L1, scored day 5): L1; 5 Day Visual Score V2 (23.3 μM, C. elegans L1, scored day 5): L1; 5 Day Visual Score V1 (70 μM, C. elegans L1, scored day 5): L1 |
| CCN(Cc1ccccc1)c1nc(NCc2ccc(C(F)(F)F)cc2)ns1 [compound 310] | 116 |  | 187 | 102 |  | 112 |  |  |  |  |  |  | #AD/˜B | OK (no effect (˜1000+ progeny)) | OK (no effect (˜1000+ progeny)) | 5 Day Visual Score V1 [10]: Dead; 5 Day Visual Score V2 [11]: B (low broodsize (25-100 progeny)); 5 Day Visual Score V3 [12]: ˜B (moderate broodsize (100-250 progeny)) |
| CCN(CC)C(=O)C1CCCN(c2nc(NCc3ccc(C(F)(F)F)cc3)ns2)C1 (centres unmarked) [compound 249] | 112 |  | 180 | 98 |  | 108 |  | ˜B (moderate broodsize (100-250 progeny)) | OK (no effect (˜1000+ progeny)) | OK (no effect (˜1000+ progeny)) | OK (no effect (˜1000+ progeny)) | OK (no effect (˜1000+ progeny)) |  |  |  |  |
| CN(Cc1ccccc1)c1nc(NCc2ccc(F)cc2F)ns1 [compound 295] | 128 | B! (sterile (0-25 progeny)) | 206 | 121 | L4/AD/B!-Few Eggs | 133 |  | B (low broodsize (25-100 progeny)) | B (low broodsize (25-100 progeny)) | OK (no effect (˜1000+ progeny)) | OK (no effect (˜1000+ progeny)) | OK (no effect (˜1000+ progeny)) |  |  |  |  |
| Cc1cccc(C)c1N1CCN(c2nc(NCc3ccc(C(F)(F)F)cc3)ns2)CC1 [compound 304] | 107 |  | 172 | 96 | L4/AD/B! | 106 | L1 | OK (no effect (˜1000+ progeny)) | OK (no effect (˜1000+ progeny)) | OK (no effect (˜1000+ progeny)) | OK (no effect (˜1000+ progeny)) | < (reduced broodsize (250-500 progeny)) |  |  |  |  |
| OCC1CCCN1c1nc(NCc2ccc(C(F)(F)F)cc2)ns1 (centres unmarked) [compound 316] | 106 | L2 | 171 | 100 | Dead(L3) | 110 |  |  |  |  |  |  | < (reduced broodsize (250-500 progeny)) | OK (no effect (˜1000+ progeny)) | OK (no effect (˜1000+ progeny)) | 5 Day Visual Score V1 [10]: Dead; 5 Day Visual Score V2 [11]: Dead(L3); 5 Day Visual Score V3 [12]: ˜B (moderate broodsize (100-250 progeny)) |
| OC1CCN(c2nc(NCc3ccccc3)ns2)CC1 [compound 262] | 106 |  | 171 | 110 | L3/L4/AD/B! | 121 | L4/#AD/B! | < (reduced broodsize (250-500 progeny)) | OK (no effect (˜1000+ progeny)) | OK (no effect (˜1000+ progeny)) | OK (no effect (˜1000+ progeny)) | OK (no effect (˜1000+ progeny)) |  |  |  |  |
| Cc1cccc(C)c1N1CCN(c2nc(NCc3ccccc3C(F)(F)F)ns2)CC1 [compound 318] | 111 | B (low broodsize (25-100 progeny)) | 178 | 101 | B!-Clear-Few Eggs | 111 |  |  |  |  |  |  | OK (no effect (˜1000+ progeny)) | OK (no effect (˜1000+ progeny)) | OK (no effect (˜1000+ progeny)) | 5 Day Visual Score V1 [10]: B (low broodsize (25-100 progeny)); 5 Day Visual Score V2 [11]: ˜B (moderate broodsize (100-250 progeny)); 5 Day Visual Score V3 [12]: OK (no effect (˜1000+ progeny)) |
